From ChEMBL document CHEMBL1201862, “PubChem BioAssay data set” (2004)
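Each compound was tested at five concentrations against cells in 96-well plates for 48 hours. At the GI50, growth is halved.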 Active and inactive are the calls of the source. Rule as the data show it: active = GI50 up to about 1.1 µM and inactive = higher.

How the values were obtained:
Experiment in all cases: DTP human tumour cell line panel, 48 h
DMS-114 = system: DMS-114
HOP-18 = system: HOP-18
DLD-1 = system: DLD-1
SNB-78 = system: SNB-78
DMS-273 = system: DMS-273
LXFL 529 = system: LXFL 529
XF498 = system: XF498
M19-MEL = system: M19-MEL
RXF 631 = system: RXF 631

| Structure (SMILES) | GI50 (DMS-114) | GI50 (HOP-18) | GI50 (DLD-1) | GI50 (SNB-78) | GI50 (DMS-273) | GI50 (LXFL 529) | GI50 (XF498) | GI50 (M19-MEL) | GI50 (RXF 631) |
| --- | --- | --- | --- | --- | --- | --- | --- | --- | --- |
| COC1=NCc2ccccc2-c2ccccc21 | > 100 µM (inactive) | 75.9 µM (inactive) | > 100 µM (inactive) | > 100 µM (inactive) | > 100 µM (inactive) | > 10 µM (inactive) | > 100 µM (inactive) |  |  |
| COc1ccc2ccccc2c1CN1CCOCCOCCN(Cc2c(OC)ccc3ccccc23)CCOCCOCC1 | 9.95 µM (inactive) |  | > 100 µM (inactive) | > 68.4 µM (inactive) | 24.2 µM (inactive) | > 89.9 µM (inactive) | > 41.5 µM (inactive) | > 81.8 µM (inactive) |  |
| Cc1cc2c(cn1)C(=O)OCC2 | > 100 µM (inactive) | > 100 µM (inactive) | > 100 µM (inactive) | > 100 µM (inactive) |  | > 100 µM (inactive) | > 100 µM (inactive) | > 100 µM (inactive) |  |
| CCOP(=S)(OCC)Oc1ccc2c(c1)OC(=O)C1(Cl)C2(C)C2(Cl)C(=O)Oc3cc(OP(=S)(OCC)OCC)ccc3C12C (configuration not stated) | 14.6 µM (inactive) |  | 16.8 µM (inactive) | 19.4 µM (inactive) | 20.3 µM (inactive) | 8.67 µM (inactive) | 19.2 µM (inactive) | 18 µM (inactive) |  |
| Oc1ccc2ccccc2c1/N=N/c1ccsc1 | > 100 µM (inactive) | > 100 µM (inactive) | > 100 µM (inactive) | > 100 µM (inactive) | > 100 µM (inactive) | > 100 µM (inactive) |  | > 100 µM (inactive) | 45.5 µM (inactive) |
| CC(C)N(C(=O)C12C3C4C5(C(=O)O)C(C1C35I)C42C(=O)O)C(C)C (configuration not stated) | > 100 µM (inactive) |  | > 100 µM (inactive) | > 100 µM (inactive) | > 100 µM (inactive) | > 100 µM (inactive) |  | > 100 µM (inactive) | > 100 µM (inactive) |
| COC(=O)[C@H]1C=C[C@@H](C)n2c(=O)c3cc4ccccc4cc3c(=O)n21 | > 100 µM (inactive) |  | > 100 µM (inactive) | > 100 µM (inactive) | > 100 µM (inactive) | > 100 µM (inactive) | 98.9 µM (inactive) | > 100 µM (inactive) | > 100 µM (inactive) |
| COC(=O)C1=C(c2cc(OC)c(OC)c(OC)c2)OC(c2ccc(OC)c(OC)c2)C1 (configuration not stated) | 28.4 µM (inactive) | 92.3 µM (inactive) | 36.5 µM (inactive) |  | 45.4 µM (inactive) | 26.5 µM (inactive) | 68.4 µM (inactive) | 43.3 µM (inactive) |  |
| CC1(C2CCC3(C)OC3C2)CO1 (configuration not stated) | > 100 µM (inactive) | > 100 µM (inactive) | > 100 µM (inactive) | > 100 µM (inactive) | > 100 µM (inactive) | > 100 µM (inactive) | > 100 µM (inactive) | > 100 µM (inactive) | > 100 µM (inactive) |
| O=C1/C(=C/c2ccccc2)CN(C(=O)CCN2CCCC2)C/C1=C\c1ccccc1 | 2.07 µM (inactive) | 3.35 µM (inactive) | 1.46 µM (inactive) | 3.8 µM (inactive) | 1.75 µM (inactive) | 1.72 µM (inactive) | 5.09 µM (inactive) | 1.84 µM (inactive) | 4.08 µM (inactive) |
| CN(C)NC(=O)NC12CC3CC(CC(C3)C1)C2 |  |  |  | > 100 µM (inactive) | > 100 µM (inactive) | > 100 µM (inactive) | > 100 µM (inactive) | > 100 µM (inactive) |  |
| COc1ccc2c(c1)[n+]([O-])c(/C(C)=N/NC(=O)CC#N)c[n+]2[O-] | > 100 µM (inactive) | > 100 µM (inactive) | 74.6 µM (inactive) | > 100 µM (inactive) | > 100 µM (inactive) | > 100 µM (inactive) | > 100 µM (inactive) | > 100 µM (inactive) | > 100 µM (inactive) |
| CCC(=S)N(C)O | 2.22 µM (inactive) |  | 24.6 µM (inactive) | 55.6 µM (inactive) |  | 0.499 µM (active) | 1.01 µM (active) | 9.77 µM (inactive) |  |
| O=C(n1c2ccccc2c2nnc(S)nc21)C(F)(F)F | > 100 µM (inactive) |  | > 100 µM (inactive) | > 100 µM (inactive) | > 100 µM (inactive) | > 100 µM (inactive) | > 100 µM (inactive) | > 100 µM (inactive) |  |
| COc1cc2c(cc1OC)C1Cc3ccc(OC)c(OC)c3C[N+]1([O-])CC2 (configuration not stated) |  |  | > 100 µM (inactive) | > 100 µM (inactive) |  | > 100 µM (inactive) | > 100 µM (inactive) |  |  |
